Measured values from PubChem BioAssay (NCI).
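Interpolation was linear, between the two tested concentrations surrounding the appropriate level; five concentrations were tested over 48 hours in 96-well plates. Abbreviation: GI50, concentration required for 50% inhibition of growth. TGI is the concentration that stops growth completely.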

Experiments:
Test in all cases: growth of human tumour cells (NCI), 48 h
HCC-2998 colon = system: HCC-2998 colon
U251 CNS = system: U251 CNS
SNB-19 CNS = system: SNB-19 CNS
SR leukemia = system: SR leukemia
CCRF-CEM leukemia = system: CCRF-CEM leukemia
MOLT-4 leukemia = system: MOLT-4 leukemia
T-47D breast = system: T-47D breast
NCI-H23 lung = system: NCI-H23 lung

Nc1c(C(=O)c2cccc(C#CCO)c2)cnn1-c1ccc(F)cc1
GI50 (HCC-2998 colon): > 25 µM
TGI (HCC-2998 colon): > 25 µM
GI50 (U251 CNS): > 25 µM
TGI (U251 CNS): > 25 µM
GI50 (SNB-19 CNS): > 25 µM
TGI (SNB-19 CNS): > 25 µM
GI50 (SR leukemia): > 25 µM
TGI (SR leukemia): > 25 µM
GI50 (CCRF-CEM leukemia): > 25 µM
TGI (CCRF-CEM leukemia): > 25 µM
GI50 (MOLT-4 leukemia): > 25 µM
TGI (MOLT-4 leukemia): > 25 µM
GI50 (T-47D breast): > 25 µM
TGI (T-47D breast): > 25 µM
GI50 (NCI-H23 lung): > 25 µM
TGI (NCI-H23 lung): > 25 µM

Cc1cnc(CNC(=O)c2c(=O)c3ccc(N4CCCN(C)CC4)nc3n3c2sc2ccccc23)cn1
GI50 (HCC-2998 colon): 2.72 µM
TGI (HCC-2998 colon): 21.3 µM
GI50 (U251 CNS): 3 µM
TGI (U251 CNS): 7.37 µM
GI50 (SNB-19 CNS): 1.52 µM
TGI (SNB-19 CNS): 10.1 µM
GI50 (SR leukemia): 0.0311 µM
TGI (SR leukemia): > 34.3 µM
GI50 (CCRF-CEM leukemia): 1.96 µM
TGI (CCRF-CEM leukemia): 19.9 µM
GI50 (MOLT-4 leukemia): 0.0839 µM
TGI (MOLT-4 leukemia): 10.7 µM
GI50 (T-47D breast): 17.3 µM
TGI (T-47D breast): 45.6 µM
GI50 (NCI-H23 lung): 0.922 µM
TGI (NCI-H23 lung): 6.1 µM

C=C1c2ccoc2C[C@H]2[C@H]1CC[C@@]1(O)[C@@](C)(C(=O)OC)CCC[C@]21C
GI50 (HCC-2998 colon): 29.4 µM
TGI (HCC-2998 colon): 71 µM
GI50 (U251 CNS): 42.4 µM
TGI (U251 CNS): > 100 µM
GI50 (SNB-19 CNS): 62.1 µM
TGI (SNB-19 CNS): > 100 µM
GI50 (SR leukemia): 13.1 µM
TGI (SR leukemia): 31.6 µM
GI50 (CCRF-CEM leukemia): 23.5 µM
TGI (CCRF-CEM leukemia): 60.1 µM
GI50 (MOLT-4 leukemia): 15.6 µM
TGI (MOLT-4 leukemia): 43.3 µM
GI50 (T-47D breast): 27.3 µM
TGI (T-47D breast): > 100 µM
GI50 (NCI-H23 lung): 44.4 µM
TGI (NCI-H23 lung): > 100 µM

CCN1C(=O)N(CC)C2C1NN=c1s/c(=C\c3ccccn3)c(=O)n12 (stereo unspecified)
GI50 (HCC-2998 colon): 3.17 µM
TGI (HCC-2998 colon): > 100 µM
GI50 (U251 CNS): 2.96 µM
TGI (U251 CNS): > 100 µM
GI50 (SNB-19 CNS): 3.04 µM
TGI (SNB-19 CNS): > 100 µM
GI50 (SR leukemia): 0.455 µM
TGI (SR leukemia): > 100 µM
GI50 (CCRF-CEM leukemia): 1.53 µM
TGI (CCRF-CEM leukemia): > 100 µM
GI50 (MOLT-4 leukemia): 1.57 µM
TGI (MOLT-4 leukemia): > 100 µM
GI50 (T-47D breast): 4.84 µM
TGI (T-47D breast): > 100 µM
GI50 (NCI-H23 lung): 3.82 µM
TGI (NCI-H23 lung): > 100 µM

Cc1ccc(C(=O)NC2CCC2)cc1-c1ccc(C(=O)NCC2CC2)cc1
GI50 (HCC-2998 colon): > 25 µM
TGI (HCC-2998 colon): > 25 µM
GI50 (U251 CNS): > 25 µM
TGI (U251 CNS): > 25 µM
GI50 (SNB-19 CNS): > 25 µM
TGI (SNB-19 CNS): > 25 µM
GI50 (SR leukemia): > 25 µM
TGI (SR leukemia): > 25 µM
GI50 (CCRF-CEM leukemia): > 25 µM
TGI (CCRF-CEM leukemia): > 25 µM
GI50 (MOLT-4 leukemia): > 25 µM
TGI (MOLT-4 leukemia): > 25 µM
GI50 (T-47D breast): 12.9 µM
TGI (T-47D breast): > 25 µM
GI50 (NCI-H23 lung): > 25 µM
TGI (NCI-H23 lung): > 25 µM

O=C1NOC(c2ccc(O)cc2)(c2ccc(O)cc2)c2ccccc21
GI50 (HCC-2998 colon): > 100 µM
TGI (HCC-2998 colon): > 100 µM
GI50 (U251 CNS): > 100 µM
TGI (U251 CNS): > 100 µM
GI50 (SNB-19 CNS): > 100 µM
TGI (SNB-19 CNS): > 100 µM
GI50 (SR leukemia): > 100 µM
TGI (SR leukemia): > 100 µM
GI50 (CCRF-CEM leukemia): > 100 µM
TGI (CCRF-CEM leukemia): > 100 µM
GI50 (MOLT-4 leukemia): > 100 µM
TGI (MOLT-4 leukemia): > 100 µM
GI50 (T-47D breast): > 100 µM
TGI (T-47D breast): > 100 µM
GI50 (NCI-H23 lung): > 100 µM
TGI (NCI-H23 lung): > 100 µM

NCCN.O=C([O-])CN1CCOCC1.[OH-].[Pt+4]
GI50 (HCC-2998 colon): > 100 µM
TGI (HCC-2998 colon): > 100 µM
GI50 (U251 CNS): > 100 µM
TGI (U251 CNS): > 100 µM
GI50 (SNB-19 CNS): > 100 µM
TGI (SNB-19 CNS): > 100 µM
GI50 (SR leukemia): > 100 µM
TGI (SR leukemia): > 100 µM
GI50 (CCRF-CEM leukemia): > 100 µM
TGI (CCRF-CEM leukemia): > 100 µM
GI50 (MOLT-4 leukemia): > 100 µM
TGI (MOLT-4 leukemia): > 100 µM
GI50 (T-47D breast): > 100 µM
TGI (T-47D breast): > 100 µM
GI50 (NCI-H23 lung): 60.9 µM
TGI (NCI-H23 lung): > 100 µM

COc1ccc(/C=C(\C(=O)NCc2cccnc2)S(=O)(=O)c2ccccc2)cc1OC
GI50 (HCC-2998 colon): 3.91 µM
TGI (HCC-2998 colon): 15.1 µM
GI50 (U251 CNS): 3.09 µM
TGI (U251 CNS): 14 µM
GI50 (SNB-19 CNS): 3.69 µM
TGI (SNB-19 CNS): 13.1 µM
GI50 (SR leukemia): 3.3 µM
TGI (SR leukemia): > 100 µM
GI50 (CCRF-CEM leukemia): 2.26 µM
TGI (CCRF-CEM leukemia): 15.8 µM
GI50 (MOLT-4 leukemia): 3.35 µM
TGI (MOLT-4 leukemia): 89.1 µM
GI50 (T-47D breast): 2.59 µM
TGI (T-47D breast): 10.8 µM
GI50 (NCI-H23 lung): 3.01 µM
TGI (NCI-H23 lung): 10.6 µM

COc1ccccc1CNCCCN1C(=O)c2ccc3c4c(ccc(c24)C1=O)C(=O)N(CCCN)C3=O
GI50 (HCC-2998 colon): 1.8 µM
TGI (HCC-2998 colon): 3.58 µM
GI50 (U251 CNS): 1.77 µM
TGI (U251 CNS): 3.99 µM
GI50 (SNB-19 CNS): 1.58 µM
TGI (SNB-19 CNS): 3.37 µM
GI50 (SR leukemia): 0.243 µM
TGI (SR leukemia): 1.36 µM
GI50 (CCRF-CEM leukemia): 0.441 µM
TGI (CCRF-CEM leukemia): 2.76 µM
GI50 (MOLT-4 leukemia): 0.446 µM
TGI (MOLT-4 leukemia): 2.24 µM
GI50 (T-47D breast): 1.22 µM
TGI (T-47D breast): 3.31 µM
GI50 (NCI-H23 lung): 0.94 µM
TGI (NCI-H23 lung): 3.74 µM

CN(C)CC1CCC2=C(C1=O)C(c1ccc(Cl)c(Cl)c1)C1=C(CCC(CN(C)C)C1=O)O2 (stereo unspecified)
GI50 (HCC-2998 colon): 0.0835 µM
TGI (HCC-2998 colon): 14.6 µM
GI50 (U251 CNS): 11.7 µM
TGI (U251 CNS): 23.9 µM
GI50 (SNB-19 CNS): 16 µM
TGI (SNB-19 CNS): 29.7 µM
GI50 (SR leukemia): 1.44 µM
TGI (SR leukemia): 5.37 µM
GI50 (CCRF-CEM leukemia): 3.33 µM
TGI (CCRF-CEM leukemia): 26.3 µM
GI50 (MOLT-4 leukemia): 5.18 µM
TGI (MOLT-4 leukemia): 22.1 µM
GI50 (T-47D breast): 2.05 µM
TGI (T-47D breast): 7.9 µM
GI50 (NCI-H23 lung): 3.6 µM
TGI (NCI-H23 lung): 11.9 µM

CC(C)(C)c1[nH]nc2c1C(c1cc3ccccc3[nH]c1=O)Nc1cc(C(=O)OCc3ccccc3)ccc1N2 (stereo unspecified)
GI50 (HCC-2998 colon): 4.08 µM
TGI (HCC-2998 colon): > 100 µM
GI50 (U251 CNS): 3.41 µM
TGI (U251 CNS): > 100 µM
GI50 (SNB-19 CNS): 3.28 µM
TGI (SNB-19 CNS): > 100 µM
GI50 (SR leukemia): 3.52 µM
TGI (SR leukemia): > 100 µM
GI50 (CCRF-CEM leukemia): 3.23 µM
TGI (CCRF-CEM leukemia): > 100 µM
GI50 (MOLT-4 leukemia): 3.3 µM
TGI (MOLT-4 leukemia): 44.1 µM
GI50 (T-47D breast): 4.08 µM
TGI (T-47D breast): > 100 µM
GI50 (NCI-H23 lung): 5.14 µM
TGI (NCI-H23 lung): > 100 µM
